From PMC7055300, “Theileria parasites subvert E2F signaling to stimulate leukocyte proliferation” (Scientific Reports, 2020) come the findings set out here.

For data set [1], the target named is T1, Retinoblastoma-1 (RB) pocket domain (Homo sapiens, UniProt P06400).
T1 construct: Recombinant, purified RB pocket domain was coupled to the surface of the sensor chip; purchased LDBiopharma HTF-1035
T1 sequence (P06400 373-771 limits assumed): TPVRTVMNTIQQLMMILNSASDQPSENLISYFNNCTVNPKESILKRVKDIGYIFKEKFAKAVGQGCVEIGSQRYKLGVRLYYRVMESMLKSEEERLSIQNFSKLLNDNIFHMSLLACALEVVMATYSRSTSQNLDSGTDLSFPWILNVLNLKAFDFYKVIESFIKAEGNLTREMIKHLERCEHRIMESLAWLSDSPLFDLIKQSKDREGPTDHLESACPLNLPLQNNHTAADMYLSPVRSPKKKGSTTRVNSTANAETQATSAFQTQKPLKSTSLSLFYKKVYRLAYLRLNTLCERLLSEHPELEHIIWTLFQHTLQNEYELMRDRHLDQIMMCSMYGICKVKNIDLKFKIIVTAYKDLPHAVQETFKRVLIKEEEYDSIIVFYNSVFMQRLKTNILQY
The experiment in a line: Surface plasmon resonance binding to RB pocket domain. Conditions: SPR, RB pocket domain on sensor chip; sequence-scrambled peptides as negative controls. From the text: Since the proliferation of T. parva-infected host cells is thought to be critical for the pathogenesis of infection, we investigated whether synthesized peptides, each 9 to 19 amino acids long and containing these 15 T. parva motifs, could bind to RB (Supplementary Table 1). Surface plasmon resonance (SPR) was used to screen these peptides for specific RB1 pocket domain-binding activity. Recombinant, purified RB pocket domain was coupled to the surface of the sensor chip, and purified peptides were introduced at various concentrations to quantify kinetics if response curves indicated a detectable protein-protein interaction. Sequence-scrambled peptides were used as negative controls to exclude false-positive signals.
Immobilization of human RB1 protein to CM5 chip
Surface preparation. […]
(§1) Kinetics analysis of binding. […] The analytes (60 µl each, 0–25 µM in HBS-EP buffer with 0.05% P20) were injected into flow cell and the association of analyte and ligand were recorded respectively by surface plasmon resonance (SPR) with a Biacore T200 (Biacore, Inc., New Jersey). […]
(§2) Data analysis. Sensorgrams of the interaction generated by the instrument were analyzed using the software BIAeval 3.2 (Biacore Inc., New Jersey). […]
(SPR reads the build-up and loss of mass on a sensor chip optically.)

For data set [2], the system named is RB pocket domain / E2F-1. The experiment in a line: SPR competition of TpGcpE with E2F-1 for the RB pocket domain. The format is binding, human. Conditions: TpGcpE bound to saturation, then E2F-1 added.
From the text: In order to map the site of the interaction of the LXCXE motif with the RB pocket domain, we used SPR to test the ability of full-length TpGcpE protein to compete with two proteins that have known, well-characterized interactions with the RB pocket domain, E2F1 and HDAC1. The RB pocket domain was coupled to the surface of the sensor chip, and purified, recombinant, full-length TpGcpE was introduced into the flow channel to bind the RB pocket domain to saturation; then either purified, recombinant E2F-1 or HDAC1 was added to the channel and the response curve recorded to determine if they competed withTpGcpE binding.
(a) A kinetic surface plasmon resonance binding curve (sensorgram) of full-length HDAC1 to the RB pocket domain is shown. (b) Kinetic binding curve of full-length HDAC1 in competition with full-length TpMuguga02_00667 (TpGcpE). (c) A sensorgram of full-length E2F1 to the RB pocket domain is shown. […]
as §1, §2

The test system of data set [3] is RB-HDAC1. Nature of the data set: RB-HDAC1 binding with penetrating peptides. As to conditions: discussion statement. The format is cell-based.
Data set [4] deals with E2F activity in T. annulata-infected macrophages. The experiment in a line: E2F-luc reporter assay, T. annulata-transformed macrophages (Ode). It counts as cell-based, bovine. As to conditions: 1 μM penetrating peptide, 2 hrs. How it is done:
(§3) Since no system for genetic manipulation is available yet for intracellular Theileria, we instead incubated T. parva- and T. annulata-infected bovine leukocytes (transfected with a luciferase reporter regulated from an E2F promoter) with synthesized peptides containing the RB-binding LXCXE motif, or a mutated LXNXE negative control, linked to a cell-penetrating peptide. If the LXCXE-containing peptide can regulate E2F activity in a sequence-specific manner, we would expect it to increase E2F activity, and that this effect would be reduced or abrogated in the mutated LXNXE peptide-treated group.
(a) TpMD409B.2 cells were transfected with E2F-luc (WT = wild-type E2F binding construct), or mutated E2F-luc constructs (labeled ‘mutated’) together with a CMV-lacZ plasmid to normalize for transfection efficiency. Luciferase and β-galactosidase activities were measured 24 hrs after transfection. E2F-luc relative luciferase activity normalized to mE2F-luc. Shown is the average of 3 independent experiments with standard deviation. BL20 or TBL20 cells were treated with (b) 1μM of penetrating peptides ([…]-K(FITC)) containing the TpGcpE LXCXE motif, or an LXNXE control ([…]-K(FITC)) or (c) E2F inhibitor or DMSO control, and then counted by hemacytometer after the indicated timepoints. […] Then, cells were treated with penetrating peptides as in (b) for 2 hrs and luciferase activity was quantified. […]
For orientation: Reporter assays use an easily measured gene product as a stand-in for the process of interest.

Data set [5] has as its system E2F activity in T. annulata-infected B cells. The experiment in a line: E2F-luc reporter assay, T. annulata-infected B cells (TBL20). The format is cell-based, bovine. Conditions: for E2F reporter activity: T. annulata-infected B cells, E2F-luc, 1 μM penetrating peptide, 2 hrs. How it is done: as §3
(a) TpMD409B.2 cells were transfected with E2F-luc (WT = wild-type E2F binding construct), or mutated E2F-luc constructs (labeled ‘mutated’) together with a CMV-lacZ plasmid to normalize for transfection efficiency. Luciferase and β-galactosidase activities were measured 24 hrs after transfection. E2F-luc relative luciferase activity normalized to mE2F-luc. Shown is the average of 3 independent experiments with standard deviation. BL20 or TBL20 cells were treated with (b) 1μM of penetrating peptides ([…]-K(FITC)) containing the TpGcpE LXCXE motif, or an LXNXE control ([…]-K(FITC)) or (c) E2F inhibitor or DMSO control, and then counted by hemacytometer after the indicated timepoints. Shown is the average of 3 independent experiments with standard deviation. Then, either (d) virulent Ode T. annulata-transformed macrophages, or (e) BL20/TBL20 T. annulata-transformed cells were transfected with E2F-luc plasmid (or mutated E2F-luc as in (c)) and incubated for 24 hrs at 37 °C. Then, cells were treated with penetrating peptides as in (b) for 2 hrs and luciferase activity was quantified. […]
TpMD409.B2 cells were co-transfected with 20 μg (E2F-luc, mE2F-luc), or 10 μg (cyclin E-luc) reporter construct, 20 μg of expression vector and 5 μg of pCMV-lacZ, where indicated. Luciferase and β-galactosidase activities were measured 24 h after transfection according to previously published procedures. […]

The subject of data set [6] is T. annulata-infected TBL20 cells. Nature of the data set: Cell proliferation, T. annulata-infected B cells (TBL20), hemacytometer count. It counts as cell-based, bovine. The procedure:
(a) TpMD409B.2 cells were transfected with E2F-luc (WT = wild-type E2F binding construct), or mutated E2F-luc constructs (labeled ‘mutated’) together with a CMV-lacZ plasmid to normalize for transfection efficiency. Luciferase and β-galactosidase activities were measured 24 hrs after transfection. E2F-luc relative luciferase activity normalized to mE2F-luc. Shown is the average of 3 independent experiments with standard deviation. BL20 or TBL20 cells were treated with (b) 1μM of penetrating peptides ([…]-K(FITC)) containing the TpGcpE LXCXE motif, or an LXNXE control ([…]-K(FITC)) or (c) E2F inhibitor or DMSO control, and then counted by hemacytometer after the indicated timepoints. Shown is the average of 3 independent experiments with standard deviation. Then, either (d) virulent Ode T. annulata-transformed macrophages, or (e) BL20/TBL20 T. annulata-transformed cells were transfected with E2F-luc plasmid (or mutated E2F-luc as in (c)) and incubated for 24 hrs at 37 °C. Then, cells were treated with penetrating peptides as in (b) for 2 hrs and luciferase activity was quantified. Data shown are representative of three independent experiments done with biological duplicates, with mean + standard deviation (*P-value < 0.05 compared to untreated; ^‡P-value < 0.05 compared to its respective BL20 control).
The TpMD409.B2 cell line is a T. parva Muguga-infected B-cell clone (B2) whose establishment, phenotypic characteristics and culture conditions have been described[25]–[27]. BL20 cells are a retrovirus-transformed B cell line isolated from an infected cow. To eliminate the parasite, cells were treated for the indicated time with buparvaquone (50 ng/ml, 1 mg/ml stock in ethanol; Sigma). To inhibit E2F activity, cells were treated for the indicated time with HLM006474 (10 μM in DMSO, Sigma), or DMSO (10μM; Sigma) as a control. The T. annulata-infected cell lines BL20 (B cell), as well as Ode (macrophage) cell lines are well described and characterized.
The amino acid sequence of RB-1 based on the parasite sequence ([…]) was synthesized. Cysteine in wild type RB1 was replaced by an Asparagine (N; in bold […]). The penetrating peptide to facilitate cell entry is underlined.

Data set [7] deals with BL20/TBL20 cells. It counts as cell-based, bovine. As to conditions: penetrating peptides, 24 h and 48 h; data not shown. The procedure: Since the LXCXE peptide can induce E2F activity, we investigated whether it could, on its own, increase bovine leukocyte proliferation. To extend our observations to T. annulata-infected leukocytes, we incubated T. annulata-infected B cells with WT or mutated LXNXE peptides and counted cell numbers at 24 h and 48 h.
The amino acid sequence of RB-1 based on the parasite sequence ([…]) was synthesized. Cysteine in wild type RB1 was replaced by an Asparagine (N; in bold […]). The penetrating peptide to facilitate cell entry is underlined. 3 different concentrations of peptides were used for 2 h to determine the minimum effective concentration (1 μM) with minimum toxic effect, which was used to perform each experiment as indicated.

The test system of data set [8] is E2F activity in T. parva-infected B cells. The experiment in a line: E2F-luc reporter assay, T. parva-infected B cells. The format is cell-based, bovine. Conditions: penetrating peptide. The procedure:
as §3
TpMD409.B2 cells were co-transfected with 20 μg (E2F-luc, mE2F-luc), or 10 μg (cyclin E-luc) reporter construct, 20 μg of expression vector and 5 μg of pCMV-lacZ, where indicated. Luciferase and β-galactosidase activities were measured 24 h after transfection according to previously published procedures. TpMD409.B2 cells were also co-transfected with pCMV-HA-DP-1 D103–126 and c-myc-luciferase as previously described.
The amino acid sequence of RB-1 based on the parasite sequence ([…]) was synthesized. Cysteine in wild type RB1 was replaced by an Asparagine (N; in bold […]). The penetrating peptide to facilitate cell entry is underlined. […]

Consider “E2F1: host E2F transcription factor, known RB pocket domain binder”, for which the “RB binding in words” value in data set [1] was “binding to the RB pocket domain”. Further, in data set [2], the “competition with E2F-1 for RB pocket domain binding” value was “does not compete with full-length TpGcpE for binding to the RB pocket domain”.
Turning to “VKKKKIKREIKIYIEEVFTPLVLKCKELK-K(FITC) [LXCXE peptide, penetrating peptide containing the TpGcpE LXCXE motif, used in cells]”, the RB-HDAC1 binding entry in data set [3] is reported as “block RB-HDAC1 binding”. The E2F reporter activity result in data set [4] and in data set [5] was “increased E2F activity” throughout. The E2F-driven transcription entry in data set [5] (discussion statement, infected leukocytes) is on record as “activate E2F-driven transcription”. The “proliferation (cell number)” value in data set [6] (T. annulata-infected B cells, 1 μM penetrating peptide, 24 h and 48 h, average of 3 independent experiments) was “induced a significant increase in proliferation”. The infected leukocyte proliferation result in data set [6] (discussion statement) is given as “promote infected leukocyte proliferation”. In data set [7], the cell viability entry is “no effect on cell viability”.
For the substance “VKKKKIKREIKIYIEEVFTPLVLKNKELK-K(FITC) [LXNXE peptide, penetrating peptide with mutated LXNXE motif, negative control]”, the E2F reporter activity entry in data set [8], in data set [4] and in data set [5] was “did not show the same reporter activity as the LXCXE peptide” in each case. Besides, in data set [7], the cell viability entry is listed as “no effect on cell viability”.
